The values below come from patent US20050074744A1, “Assays for evaluating anti-osteoarthritic activity” (priority 2003, published 2005).

One data set deals with stromelysin RNA. The data set can be described thus: Quantitative real-time RT-PCR of stromelysin RNA in IL-1β-treated ACGs. The format is cell-based, human. The following applies: ACG, 24 hours. The protocol: (§1) ACGs were constructed from the human chondrocyte strain Cc 05912 1°, which was isolated and propagated in Dubelcco's-Modified Eagle's Medium with. 10% fetal bovine serum (DMEM/10% FBS). After propagation, the cells were used to assemble ACGs on type II collagen coated Millipore Millicell-CM filters at a density of 2 million cells/cm^2, using the procedure described in U.S. Pat. No. 5,326,357. The ACGs were grown in defined ACG media (DMEM/2×ITS×(Invitrogen # 51500-056), 2% Human Serum Albumin) supplemented with 5 ng/ml TGF-β2 and 100 μg/ml ascorbic acid. After three weeks in culture, the levels of aggrecan and collagen type II expression in the ACGs peaked and leveled off. […]
(§2) After incubation with IL-1β for 24 hours, a group of the ACGs from Example 2 were harvested for quantitative real-time RT-PCR by snap freezing them in LN2. For quantitative real-time RT-PCR total RNA was isolated from the ACGs with TRIzol™ Reagent (Invitrogen # 15596-026) with subsequent cleanup using the Qiagen Rneasy™ Mini Kit (Qiagen # 74104). Contaminating DNA was removed from total RNA samples using the Ambion DNA-free kit (Ambion # 1906). cDNA synthesis was performed on 1 […] of each sample using the Amersham Ready-To-Go You-Prime First-Strand Beads™ (Amersham # 27-9264-01) primed with oligo dT. Reverse transcriptase activity was measured using the PicoGreen™ dsDNA quantitation Kit (Molecular Probes # P-7589). […]

Data set [1] relates to articular cartilage grafts (ACGs). Nature of the data set: Histological assessment (toluidine blue) of proteoglycan and collagen levels in ACGs. The following applies: ACG; for presence or loss of proteoglycans, toluidine blue stain: 24 hours. Format: cell-based, human. The protocol: ACGs were constructed from the human chondrocyte strain Cc 05912 1°, which was isolated and propagated in Dubelcco's-Modified Eagle's Medium with. 10% fetal bovine serum (DMEM/10% FBS). After propagation, the cells were used to assemble ACGs on type II collagen coated Millipore Millicell-CM filters at a density of 2 million cells/cm^2, using the procedure described in U.S. Pat. No. 5,326,357. The ACGs were grown in defined ACG media (DMEM/2×ITS×(Invitrogen # 51500-056), 2% Human Serum Albumin) supplemented with 5 ng/ml TGF-β2 and 100 μg/ml ascorbic acid. After three weeks in culture, the levels of aggrecan and collagen type II expression in the ACGs peaked and leveled off.
After three weeks, the IL-1β (R&D Systems # 201-LB) and DBH incubations began. All of the preincubations and subsequent incubations were performed in DMEM. First all of the ACGs were washed twice with DMEM. Sample 1 ACGs were harvested for histology and gene expression analysis at the onset of the experiment. Next, 2 hour preincubations were performed on four groups, in triplicate for both histology and gene expression analysis. Sample 2 ACGs received 250 μl of DMEM to the inside and outside of the ACG. Sample 3 ACGs received the same. Sample 4 ACGs received 5 μm DBH in the same volumes as the other groups to the inside and outside of the Millicell filter containing the ACGs. Sample 5 ACGs received DMSO in the same volume as the DBH group as a vehicle control. The ACGs were then incubated for 2 hours. After the 2 hour preincubation with DBH, IL-1β incubation was added. Sample 2 received another 250 μl of DMEM in addition to the 250 μl that was added at the preincubation step. Sample 3 received 250 μl, inside and out, of DMEM with IL-1β at a final concentration of 2 ng/ml. Sample 4 also received IL-1β with the addition of more DBH to compensate for the volume change of DMEM to keep the concentration of 5 μm. Sample 5 also received IL-1β with an adjustment of the DMSO levels to compensate for the volume change of the DMEM.
After incubation with-lL-1β for 24 hours, a group of the ACGs from Example 2 were fixed in 10% neutral buffered formalin and embedded in paraffin. Sections were cut and stained with toluidine blue to assess the presence or loss of proteoglycans in the ACGs.

Data set [2] has as its system chondrocyte monolayer cultures. The following applies: U.S. Pat. No. 5,591,740; cited from earlier work.
The subject of a further data set is collagenase 3 RNA. Nature of the data set: Quantitative real-time RT-PCR of collagenase 3 RNA in IL-1β-treated ACGs. As to conditions: ACG, 24 hours. Format: cell-based, human. The protocol:
as §1, §2

For a further data set, the system named is aggrecanase 2 RNA. Nature of the data set: Quantitative real-time RT-PCR of aggrecanase 2 RNA in IL-1β-treated ACGs. The format is cell-based, human. As to conditions: ACG, 24 hours. The protocol: as §1, §2
(In general: Quantitative PCR measures a nucleic acid by following its amplification.)

In a further data set the test system is collagenase 1 RNA. The data set can be described thus: Quantitative real-time RT-PCR of collagenase 1 RNA in IL-1β-treated ACGs. Format: cell-based, human. As to conditions: ACG, 24 hours. The protocol:
as §1, §2

Data set [3] has as its system Hartley guinea pig model of osteoarthritis. As to conditions: U.S. Pat. No. 5,591,740; cited from earlier work.
The subject of another data set is aggrecanase 1 RNA. Nature of the data set: Quantitative real-time RT-PCR of aggrecanase 1 RNA in IL-1β-treated ACGs. Format: cell-based, human. The following applies: ACG, 24 hours. The protocol:
as §1, §2

[4] abbreviates: 5 μm DBH (2 hour preincubation) + IL-1β 2 ng/ml.

As to `NC1=N/C(=C2/CCNC(=O)c3[nH]ccc32)C(=O)N1` [DBH, debromohymenialdesine], in the data set with stromelysin RNA (setting [4]), the “% reduction of IL-1β-induced gene expression with DBH, stromelysin” value is 57%. Moreover, in data set [1] (IL-1β 2 ng/ml and 5 μm DBH), the “presence or loss of proteoglycans, toluidine blue stain” value is on record as “decreased loss of proteoglycans”. Further, the “loss of proteoglycans and collagen, histological staining” value in data set [1] (IL-1β and DBH) was “reduces the loss of proteoglycans and collagen”. In addition, the “IL-1 induced degradation of matrix proteins” value in data set [2] was “inhibits IL-1 induced degradation of matrix proteins”. Further, the “% reduction of IL-1β-induced gene expression with DBH, collagenase 3” value with collagenase 3 RNA (setting [4]) stood at 55%. In addition, in the data set with aggrecanase 2 RNA (setting [4]), the “% reduction of IL-1β-induced gene expression with DBH, aggrecanase 2” value stood at 56%. The “% reduction of IL-1β-induced gene expression with DBH, collagenase 1” value with collagenase 1 RNA (setting [4]) is listed as 66%. Besides, the preexisting cartilage damage result in data set [3] is recorded as “reduces preexisting cartilage damage”. Further, in the data set on aggrecanase 1 RNA (setting [4]), the “% reduction of IL-1β-induced gene expression with DBH, aggrecanase 1” value amounted to 65%.

Turning to “IL-1β: inflammatory cytokine (R&D Systems # 201-LB) used to induce osteoarthritic cartilage damage in ACGs”, the “Fold Induction by IL-1β, stromelysin” value with stromelysin RNA (IL-1β 2 ng/ml, RNA by Q RT-PCR) is given as 168. Also, the “presence or loss of proteoglycans, toluidine blue stain” value in data set [1] (IL-1β 2 ng/ml alone) is “marked loss of proteoglycans”. Further, the “loss of proteoglycans and collagen, histological staining” value in data set [1] (IL-1β alone) is “causes the loss of proteoglycans and collagen”. Also, the “Fold Induction by IL-1β, collagenase 3” value in the data set on collagenase 3 RNA (IL-1β 2 ng/ml, RNA by Q RT-PCR) is 17. Besides, the “Fold Induction by IL-1β, aggrecanase 2” value with aggrecanase 2 RNA (IL-1β 2 ng/ml, RNA by Q RT-PCR) was 4. Further, the “Fold Induction by IL-1β, collagenase 1” value in the data set on collagenase 1 RNA (IL-1β 2 ng/ml, RNA by Q RT-PCR) worked out at 183. For the same compound, the “Fold Induction by IL-1β, aggrecanase 1” value in the data set with aggrecanase 1 RNA (IL-1β 2 ng/ml, RNA by Q RT-PCR) came to 4.
